Experimental data published in publication PMC5561212, “In Vitro Micropatterned Human Pluripotent Stem Cell Test (µP-hPST) for Morphometric-Based Teratogen Screening” (Scientific Reports, 2017).
In brackets after ≈: the same amount, converted by molar mass. Like-named read-outs stand apart in the source and are kept apart here.

How the values were obtained:
[1] = cited from earlier work
hPSC = system: hPSC; set-up: method as in PMID 24123775; details: cited from earlier work
[2] = system: human pluripotent stem cells; set-up: method as in PMID 24154490; details: cited from earlier work
[3] = cited from earlier work; for In vivo teratogenicity (in words): Supplementary Tables S2, S3; for In vivo teratogenicity: Table 1, known teratogenicity
[4] = system: µP-hPSC colonies (H9) under mesoendoderm induction; test: µP-hPST: mesoendoderm pattern disruption in µP-hPSC colonies and two-step teratogen classification; details: for Mesoendoderm pattern disruption seen in T fluorescent images: 3 days of compound exposure, in words; for Teratogenicity in µP-hPST / Teratogenicity in µP-hPST (in words): two-step classification rule
[5] = system: µP-hPSC colonies (H9) under mesoendoderm induction; set-up: method as in earlier work; details: compounds tested previously; cited from earlier work
[6] = system: adult human dermal fibroblasts (aHDF); test: Cytotoxicity assay (MTS), general cytotoxicity; type: cell-based; details: aHDF cells, 3 days, 25% inhibitory concentration
Experimental: (§1) A set of 30 compounds of known teratogenicity was selected to establish and validate the µP-hPST (Table 1). The compounds include equal number of non-teratogens and teratogens, and differ in chemical property and therapeutic usage. Before tested in the µP-hPSC colonies, the cytotoxicity profile of each compound was acquired. Two cell lines, hPSC line H9 and adult human dermal fibroblast line aHDF, were tested to represent embryonic cytotoxicity and general cytotoxicity of the compound respectively (Supplementary Figs S1, S2). The IC25 values, which were the 25% inhibitory concentrations, were calculated as the highest non-cytotoxic concentrations of the compound (Table 2, Fig. 1).
(§2) Human embryonic cell line H9 (WiCell Research Institute, Inc) and adult human dermal fibroblast (aHDF, Lonza) were cultured as previously described. Briefly, H9 cells were cultured in tissue culture plates coated with Matrigel^TM (354277, BD Biosciences) in mTeSR^TM1 medium (05850, StemCell^TM Technologies). Dispase (07923, StemCell^TM Technologies) treatment and mechanical scraping were applied during normal subculture. The aHDF cells was cultured in DMEM medium (10569-010, Gibco), supplemented with 10% FBS (SV30160.03, Thermo Scientific Hyclone) and 1% Pen-Strep (09367-34, Nacalai Tesque). Cells were subcultured every 5–6 days using 0.25% Trypsion-EDTA (25200-114, Gibco) to detach the cells.
(§3) The adverse effect of test compounds on cell proliferation and viability was detected using CellTiter 96® AQueous One Solution Cell Proliferation Assay (MTS, G3580, Promega). 10,000 H9 cells or 500 aHDF cells were seeded in 96-well tissue culture plates. For H9 cells, Matrigel^TM was coated before seeding. For each compound, 8 concentrations from serial 5-fold dilutions were tested besides the vehicle controls. Cells were cultured for 3 days with medium half change every day before cell viability was measured. Each drug was tested in three independent runs and its IC25 values (inhibitory concentrations which can cause 25% of reduction in cell number) were acquired by logistic regression using OriginPro 9.

[7] = system: human embryonic cell line H9; test: Cytotoxicity assay (MTS), embryonic cytotoxicity; type: cell-based; details: H9 cells, 3 days, 25% inhibitory concentration
Experimental: as §1, §2, §3

[8] = system: mouse embryonic stem cell; set-up: method as in PMID 19678733; details: cited from earlier work
[9] = system: µP-hPSC colonies (H9) under mesoendoderm induction
[10] = human plasma, ref U.S. FDA website, EMA website or published journals (Supplementary Table S1)

O=c1[nH]cc(F)c(=O)[nH]1 [5-Fluorouracil]
Cmax [1, 10]: 48400 ng/mL | Teratogenicity in other in vitro assays (hPSC): TER[6], [7] | Teratogenicity in other in vitro assays [2]: TER[6], [7] | In vivo teratogenicity (in words) [3]: Teratogen | In vivo teratogenicity [3]: TER | Mesoendoderm pattern disruption seen in T fluorescent images [4]: promote both cell differentiation and migration | Teratogenicity in µP-hPST [4]: TER

CC(C)(S)[C@@H](N)C(=O)O [D-penicillamine]
LDC [5]: 200 µg/mL | Cmax ([1]; compounds tested previously): 200000 ng/mL | In vivo teratogenicity (in words) [3]: Teratogen | Teratogenicity in µP-hPST (in words) [4]: Teratogen

CC/C(=C(/CC)c1ccc(O)cc1)c1ccc(O)cc1 [Diethylstilbestrol]
IC25aHDF [6]: 6.1 µg/mL (≈ 22.7 µM) | IC25H9 [7]: 8.8 µg/mL (≈ 32.8 µM) | Cmax [1, 10]: 5.6 ng/mL | Teratogenicity in other in vitro assays [2]: TER[7] | In vivo teratogenicity (in words) [3]: Teratogen | In vivo teratogenicity [3]: TER | Mesoendoderm pattern disruption seen in T fluorescent images [4]: promote cell migration | Teratogenicity in µP-hPST [4]: NON | Teratogenicity in µP-hPST (in words) [4]: misclassified as a non-teratogen

COc1cccc2c1C(=O)c1c(O)c3c(c(O)c1C2=O)C[C@@](O)(C(=O)CO)C[C@@H]3O[C@H]1C[C@H](N)[C@H](O)[C@H](C)O1 [Doxorubicin]
IC25aHDF ([6]; listed as Doxirubicin): < 1 µg/mL | IC25H9 [7]: 0.0002 µg/mL (≈ 0.000368 µM) | IC25H9 ([7]; listed as Doxirubicin): < 1 µg/mL | Cmax [1, 10]: 370 ng/mL | Teratogenicity in other in vitro assays [2]: TER[7] | In vivo teratogenicity (in words) [3]: Teratogen | In vivo teratogenicity [3]: TER | Teratogenicity in µP-hPST [4]: TER

COc1ccc2nc([S@@+]([O-])Cc3ncc(C)c(OC)c3C)[nH]c2c1 [Esomeprazole]
IC25aHDF [6]: 42.1 µg/mL (≈ 122 µM) | IC25H9 [7]: 38.9 µg/mL (≈ 113 µM) | Cmax [1, 10]: 1620 ng/mL | Teratogenicity in other in vitro assays [2]: NON[7] | In vivo teratogenicity [3]: NON | Teratogenicity in µP-hPST [4]: NON

NS(=O)(=O)c1cc(C(=O)O)c(NCc2ccco2)cc1Cl [Furosemide]
IC25aHDF [6]: 30 µg/mL (≈ 90.7 µM) | IC25H9 [7]: 362 µg/mL (≈ 1090 µM) | Classification in mEST (in words) [8]: misclassified | Teratogenicity in other in vitro assays [8]: NON[28] | In vivo teratogenicity (in words) [3]: Teratogen | In vivo teratogenicity [3]: TER | Teratogenicity in µP-hPST [4]: TER | Teratogenicity in µP-hPST (in words) [4]: teratogen

C[C@](N)(Cc1ccc(O)c(O)c1)C(=O)O [Methyldopa]
IC25aHDF [6]: 15.9 µg/mL (≈ 75.3 µM) | IC25H9 [7]: 23.2 µg/mL (≈ 110 µM) | Cmax [1, 10]: 7500 ng/mL | Teratogenicity in other in vitro assays [2]: NON[7] | In vivo teratogenicity [3]: NON | Teratogenicity in µP-hPST [4]: NON

CC1=C(/C=C/C(C)=C/C=C/C(C)=C/C(=O)O)C(C)(C)CCC1 [Retinoid acid]
Step1: Is LDC <= IC25 aHDF & IC25H9? [9]: Y | Teratogenicity in µP-hPST (in words) [9]: Teratogen | LDC [5]: 0.00036 µg/mL | Cmax ([1]; compounds tested previously): 347 ng/mL | In vivo teratogenicity (in words) [3]: Teratogen

CCN(CC)CCNC(=O)c1c(C)[nH]c(/C=C2\C(=O)Nc3ccc(F)cc32)c1C [Sunitinib]
IC25H9 [7]: 0.89 µg/mL (≈ 2.23 µM) | Cmax [1, 10]: 30 ng/mL | Teratogenicity in other in vitro assays [2]: TER[7] | In vivo teratogenicity (in words) [3]: Teratogen | In vivo teratogenicity [3]: TER | Mesoendoderm pattern disruption seen in T fluorescent images [4]: promote mesoendoderm differentiation while decrease collective cell migration | Teratogenicity in µP-hPST [4]: TER

O=C1CCC(N2C(=O)c3ccccc3C2=O)C(=O)N1 (stereo not drawn) [Thalidomide]
LDC [5]: 30 µM | Cmax ([1]; compounds tested previously, read-out: Cmax): 10.9 µM | In vivo teratogenicity (in words) [3]: Teratogen | Teratogenicity in µP-hPST (in words) [4]: Teratogen

CCCC(CCC)C(=O)O [Valproic acid]
LDC [5]: 100 µM | In vivo teratogenicity (in words) [3]: Teratogen | Teratogenicity in µP-hPST (in words) [4]: Teratogen

COc1cc2c(Nc3ccc(Br)cc3F)ncnc2cc1OCC1CCN(C)CC1 [Vandetanib]
IC25aHDF [6]: 1.1 µg/mL (≈ 2.31 µM) | IC25H9 [7]: 0.3 µg/mL (≈ 0.631 µM) | Cmax [1, 10]: 400 ng/mL | Teratogenicity in other in vitro assays [2]: TER[7] | In vivo teratogenicity (in words) [3]: Teratogen | In vivo teratogenicity [3]: TER | Teratogenicity in µP-hPST [4]: TER

O=C1Cc2cc(CCN3CCN(c4nsc5ccccc45)CC3)c(Cl)cc2N1 [Ziprasidone]
IC25aHDF [6]: 2.7 µg/mL (≈ 6.54 µM) | IC25H9 [7]: 14.4 µg/mL (≈ 34.9 µM) | Cmax [1, 10]: 200 ng/mL | Teratogenicity in other in vitro assays [2]: TER[7] | In vivo teratogenicity (in words) [3]: Teratogen | In vivo teratogenicity [3]: TER | Teratogenicity in µP-hPST [4]: TER
